Test results taken from the NIST ThermoML archive (doi:10.1016/j.tca.2013.09.017).
Numbers after ± are expanded uncertainties.

Key:
[1] = 298.15 K, 101.33 kPa, Liquid; for speed of sound: Sing-around technique in a fixed-path interferometer; for mass density: Vibrating tube method
[2] = mn = molality of the nth substance listed, in mol/kg; details: 298.15 K, 101 kPa, Liquid; for speed of sound: Sing-around technique in a fixed-path interferometer; for mass density: Vibrating tube method

CCC(=O)N(C)C [N,N-dimethylpropionamide]
[1]
Details | mass density [kg/m3] | speed of sound [m/s]
– | 921.16 ± 0.19 | 1425.4 ± 1.2

CCC(=O)N(C)C [N,N-dimethylpropionamide] + C1CCCCC1
[2]
Details | mass density [kg/m3] | speed of sound [m/s]
m1 = 0.05 | 773.91 ± 0.16 | 1254.7 ± 1
m1 = 0.1518 | 774.79 ± 0.16 | 1254.7 ± 1
m1 = 0.2497 | 775.68 ± 0.16 | 1254.8 ± 1
m1 = 0.355 | 776.64 ± 0.16 | 1254.9 ± 1
m1 = 0.4496 | 777.52 ± 0.16 | 1255 ± 1

CCC(=O)N(C)C [N,N-dimethylpropionamide] + CCCCCCC
[2]
Details | mass density [kg/m3] | speed of sound [m/s]
m1 = 0.0487 | 680.32 ± 0.21 | 1132.3 ± 0.9
m1 = 0.1515 | 681.98 ± 0.21 | 1133.4 ± 0.9
m1 = 0.2686 | 683.9 ± 0.21 | 1135.1 ± 0.9
m1 = 0.3627 | 685.47 ± 0.2 | 1136.2 ± 0.9
m1 = 0.4628 | 687.09 ± 0.2 | 1137.5 ± 0.9

CCC(=O)N(C)C [N,N-dimethylpropionamide] + CCCCO
[2]
Details | mass density [kg/m3] | speed of sound [m/s]
m1 = 0.0494 | 806.25 ± 0.15 | 1241.7 ± 1
m1 = 0.1311 | 807.08 ± 0.15 | 1243.2 ± 1
m1 = 0.21 | 807.88 ± 0.15 | 1244.6 ± 1
m1 = 0.2899 | 808.68 ± 0.15 | 1246.1 ± 1
m1 = 0.3702 | 809.48 ± 0.15 | 1247.5 ± 1

CCC(=O)N(C)C [N,N-dimethylpropionamide] + CCCO
[2]
Details | mass density [kg/m3] | speed of sound [m/s]
m1 = 0.0515 | 800.16 ± 0.15 | 1207.9 ± 1
m1 = 0.1316 | 801.03 ± 0.15 | 1209.6 ± 1
m1 = 0.2061 | 801.84 ± 0.15 | 1211.2 ± 1
m1 = 0.2845 | 802.68 ± 0.15 | 1212.9 ± 1
m1 = 0.3632 | 803.51 ± 0.15 | 1214.5 ± 1

CCC(=O)N(C)C [N,N-dimethylpropionamide] + CCO
[2]
Details | mass density [kg/m3] | speed of sound [m/s]
m1 = 0.0587 | 785.99 ± 0.16 | 1146.6 ± 0.9
m1 = 0.1486 | 787.09 ± 0.16 | 1148.1 ± 0.9
m1 = 0.2471 | 788.4 ± 0.16 | 1150.7 ± 0.9
m1 = 0.3517 | 789.6 ± 0.15 | 1153.2 ± 0.9
m1 = 0.4456 | 790.79 ± 0.15 | 1155.3 ± 0.9

CCC(=O)N(C)C [N,N-dimethylpropionamide] + CO
[2]
Details | mass density [kg/m3] | speed of sound [m/s]
m1 = 0.0618 | 787.53 ± 0.16 | 1105 ± 0.9
m1 = 0.1442 | 788.62 ± 0.16 | 1107 ± 0.9
m1 = 0.2317 | 789.76 ± 0.15 | 1109.6 ± 0.9
m1 = 0.3264 | 790.9 ± 0.15 | 1112 ± 0.9
m1 = 0.4233 | 792.14 ± 0.15 | 1114.7 ± 0.9

CCC(=O)N(C)C [N,N-dimethylpropionamide] + O
[2]
Details | mass density [kg/m3] | speed of sound [m/s]
m1 = 0.0588 | 996.85 ± 0.07 | 1501.1 ± 1.1
m1 = 0.1486 | 996.53 ± 0.07 | 1508.1 ± 1.1
m1 = 0.2471 | 996.2 ± 0.08 | 1515.7 ± 1.1
m1 = 0.3518 | 995.95 ± 0.08 | 1522 ± 1.1
m1 = 0.4457 | 995.72 ± 0.08 | 1528.2 ± 1.1

CN1CCCC1=O [N-methylpyrrolidone]
[1]
Details | mass density [kg/m3] | speed of sound [m/s]
– | 1028.01 ± 0.08 | 1545.2 ± 1.1
